The results in this text go back to patent US20070203211A1, “Drug for preventing or treating angiogenic eye diseases” (SANKYO COMPANY, LIMITED, priority 2003, published 2007).

Experiment [1] deals with C57BL/6 mice. Kind of experiment: oxygen-induced retinopathy in mice, retinopathy score by ADPase staining of retinal flat specimens. It counts as in vivo. The conditions noted are these: score as percentage of solvent control (100%), n = 9 to 16. The procedure:
Seven-day-old C57BL/6 mice were housed for five days with their mother in roughly 75% oxygen. Subsequently, the animals were housed for another five days after returning to ordinary air. While being housed in air, the animals were administered a test compound once a day. Following completion of administration, the animals were sacrificed by dislocation of the cervical vertebra followed by excision of the eyeball. The eyeballs were fixed in neutral formalin. After preparing flat specimens of the retina, vascular endothelium was stained by ADPase staining (Lutty, et al., Arch. Ophthalmol. 1992; 100: 267). After staining, retinopathy was scored in a blind study, and retinopathy was assessed for each of 12 retinal sections obtained by dividing the entire circumference of the retina into 12 equal sections centering about the papilla of the optic nerve. Assessments were made by scoring either the presence of retinopathy (score: 1) or the absence of retinopathy (score: 0), and determining the retinopathy score for each specimen based on the total score of the 12 sections. The score of each test compound was calculated as a percentage based on assigning a value of 100% for the score following administration of solvent. The test compounds consisted of (5-methyl-2-oxo-1,3-dioxolen-4-yl)methyl 4-(1-hydroxy-1-methylethyl)-2-propyl-1-[2′-(1H-tetrazol-5-yl)biphenyl-4-ylmethyl]imidazole-5-carboxylate (hereinafter, indicated as “Compound A”) for the medicament of the present invention, Candesartan cilexetil and Losartan.

Experiment [2] has as its system New Zealand White rabbits. Kind of experiment: VEGF pellet-induced corneal neovascularization in rabbits. Type of experiment: in vivo. The conditions noted are these: dosage 10 mg/kg once a day for one week; AA = neovascularization density score (0 to 5) x length (mm); solvent control 0.72 ± 0.15; n = 3. From the text:
Male New Zealand White rabbits were used in this example. The animals were anesthetized by administering suitable amounts of animal […] (registered trade mark) 50 and Celactal (registered trade mark). Moreover, the eyes were topically anesthetized by dropping 0.4% Benoxil (registered trade mark) opthalmic solution. The procedure was basically preformed in accordance with the method of Ziche, et al. (J. Clin. Invest. 1997 99: 2625-2634), and consisted of creating a pocket in the center of the cornea with a razor, and inserting a hydron pellet containing VEGF produced in advance into the pocket. A solution of the test compound was administered once a day for one week. Corneal neovascularization was photographed on the day after final administration of the test compound. Neovascularization was evaluated using the density and length of newly formed vessels as an index. Namely, neovascularization density was scored from 0 to 5 by referring to standard photographs corresponding to each score. The length of neovascularization was calculated by measuring the length (mm) of vessels uniformly extending from the corneal limbus towards the pellet based on a scale bar on the photograph. The value obtained by multiplying the neovascularization density score by the neovascularization length (mm) was used to indicate angiogenic activity (AA).

Where [3] appears, read: dosage 3 mg/kg once a day for five days.
Where [4] appears, read: dosage 10 mg/kg once a day for five days.
[5] abbreviates: dosage 30 mg/kg once a day for five days.
Where [6] appears, read: dosage 1 mg/kg once a day for five days.

In the case of `CCCCc1nc(Cl)c(CO)n1Cc1ccc(-c2ccccc2-c2nn[nH]n2)cc1` [Losartan], the “Retinopathy (%)” value in experiment [1] (setting [3]) is given as 90 ± 11%; in experiment [1] (setting [4]) it was 54 ± 10%; in experiment [1] (setting [5]) it was 42 ± 9%; in experiment [1] (dosage 100 mg/kg once a day for five days) it was 40 ± 11%.

For `CCOc1nc2cccc(C(=O)OC(C)OC(=O)OC3CCCCC3)c2n1Cc1ccc(-c2ccccc2-c2nnn[nH]2)cc1` (stereo not shown) [Candesartan cilexetil], the “Retinopathy (%)” value in experiment [1] (setting [6]) came out at 84 ± 14%; in experiment [1] (setting [3]) it was 70 ± 12%; in experiment [1] (setting [4]), 56 ± 11%; in experiment [1] (setting [5]), 58 ± 11%.

As to `CCCc1nc(C(C)(C)O)c(C(=O)OCc2oc(=O)oc2C)n1Cc1ccc(-c2ccccc2-c2nnn[nH]2)cc1` [Compound A, (5-methyl-2-oxo-1,3-dioxolen-4-yl)methyl 4-(1-hydroxy-1-methylethyl)-2-propyl-1-[2′-(1H-tetrazol-5-yl)biphenyl-4-ylmethyl]imidazole-5-carboxylate], the “Retinopathy (%)” value worked out at 57 ± 13% in experiment [1] (setting [6]), 40 ± 9% in experiment [1] (setting [3]), 31 ± 7% in experiment [1] (setting [4]) and 32 ± 11% in experiment [1] (setting [5]). Moreover, the “Angiogenic Activity (AA)” value in experiment [2] is reported as 0.14 ± 0.11.
